Columns and labels:
Format in all cases: cell-based
TYK2 [1] = biological target: T1, TYK2 (Homo sapiens, UniProt P29597, E957D); assay: JAK family kinase selectivity assay, Ba/F3-FL-TYK2-E957D cell proliferation; conditions: 72 h
T1 construct: host or cells: Ba/F3 (murine B lymphocytes)
From the text: (§1) There are four kinases in the JAK family, respectively TYK2, JAK1, JAK2 and JAK3. JAK family kinase genes were introduced into the wild-type murine B lymphocytes (BaF3), and four BaF3 engineered cell lines were constructed respectively (Ba/F3-FL-TYK2-E957D, Ba/F3-TEL-JAK1, Ba/F3-TEL-JAK2, Ba/F3-TEL-JAK3). The growth and proliferation of these engineered cell lines were not dependent on IL-3, but on exogenously transferred JAK family kinases.
(§2) In this experiment, the inhibitory effects of the compounds on the proliferation of four cell types, Ba/F3-FL-TYK2-E957D, Ba/F3-TEL-JAK1, Ba/F3-TEL-JAK2, and Ba/F3-TEL-JAK3 were tested, and apoptosis was detected, and the IC50 values were calculated. The inhibitory activities of the compounds against TYK2, JAK1, JAK2, and JAK3 kinases were evaluated based on the IC50 value, thus assessing the JAK family kinase selectivity of the compounds. […]
(§3) Cells (provided by Sundia Pharmaceutical Technology (Shanghai) Co., Ltd.) were resuspended and counted using an automated cell counter. […]
(§4) The cell plate was equilibrated to room temperature. […] Detected with SpectraMax Paradigm.
(§5) • (1) IC50 was calculated using GraphPad Prism 5. • (2) % Inh=(Max signal-Compound signal)/(Max signal-Min signal)×100. • (3) Max signal was the positive control well with only the same volume of DMSO as the compound. • (4) Min signal was the negative control well with only the culture medium.

JAK1 = biological target: T2, JAK1 (Homo sapiens, UniProt P23458, cells depend on it, form not given); assay: JAK family kinase selectivity assay, Ba/F3-TEL-JAK1 cell proliferation; conditions: Ba/F3-TEL-JAK1, 72 h; read-out: Ba/F3 Cell IC50 JAK1
T2 construct: fused on or other part: N-terminal part of TEL (ETV6) as oligomerising partner; P41212 (Transcription factor ETV6)
T2 sequence (P23458 875-1154 limits assumed, change not shown): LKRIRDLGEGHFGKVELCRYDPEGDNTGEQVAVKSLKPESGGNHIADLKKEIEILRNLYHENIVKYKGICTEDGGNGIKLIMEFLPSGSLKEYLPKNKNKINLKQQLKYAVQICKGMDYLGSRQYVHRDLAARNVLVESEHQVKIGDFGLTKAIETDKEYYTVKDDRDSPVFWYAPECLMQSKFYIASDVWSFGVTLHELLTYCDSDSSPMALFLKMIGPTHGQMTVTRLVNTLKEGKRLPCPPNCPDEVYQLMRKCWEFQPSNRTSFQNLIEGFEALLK
From the text: as §1, §2, §3, §4, §5

JAK2 = biological target: T3, JAK2 (Homo sapiens, UniProt O60674, cells depend on it, form not given); assay: JAK family kinase selectivity assay, Ba/F3-TEL-JAK2 cell proliferation; conditions: Ba/F3-TEL-JAK2, 72 h; read-out: Ba/F3 Cell IC50 JAK2
T3 construct: fused on or other part: N-terminal part of TEL (ETV6) as oligomerising partner; it is the second protein of the fusion and part of the key; P41212 (Transcription factor ETV6)
T3 sequence (O60674 849-1132 limits assumed, change not shown): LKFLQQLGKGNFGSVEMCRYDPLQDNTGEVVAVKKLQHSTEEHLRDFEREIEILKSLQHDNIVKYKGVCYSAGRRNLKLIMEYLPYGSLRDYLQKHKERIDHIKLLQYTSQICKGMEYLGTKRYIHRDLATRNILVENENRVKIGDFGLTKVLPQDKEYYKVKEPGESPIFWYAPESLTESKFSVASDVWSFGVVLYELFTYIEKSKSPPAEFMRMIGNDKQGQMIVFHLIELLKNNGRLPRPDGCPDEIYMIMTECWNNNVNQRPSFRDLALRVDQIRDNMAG
From the text: as §1
In this experiment, the inhibitory effects of the compounds on the proliferation of four cell types, Ba/F3-FL-TYK2-E957D, Ba/F3-TEL-JAK1, Ba/F3-TEL-JAK2, and Ba/F3-TEL-JAK3 were tested, and apoptosis was detected, and the IC50 values were calculated. The inhibitory activities of the compounds against TYK2, JAK1, JAK2, and JAK3 kinases were evaluated based on the IC50 value, thus assessing the JAK family kinase selectivity of the compounds.
(§6) The tested compounds, powder and stored at room temperature, were prepared into 10 mM stock solution with DMSO and stored at −20° C. away from light for use.
Compounds were formulated into dilute solutions which was 1000 times of the final concentration. The compound was prepared into 20-times of final concentration by diluting the compound with culture medium. 2 ul of 1000-times compound was added per well to 98 ul of culture medium.
Cells (provided by Sundia Pharmaceutical Technology (Shanghai) Co., Ltd.) were resuspended and counted using an automated cell counter. The cell suspension was diluted to the desired density based on BaF3 seeding density of 2000 cells per well. Each well was plated with 95 ul of cells and incubated at 37° C. for stable equilibrium. […]
as §4, §5

TYK2 [2] = biological target: T1, TYK2; assay: TYK2 kinase activity inhibition assay (Ba/F3-FL-TYK2-E957D cell proliferation, CellTiter-Glo); conditions: 72 h
Description: The TYK2 kinase gene was introduced into wild-type murine-derived B lymphocytes (BaF3) to construct the Ba/F3-FL-TYK2-E957D stable cell line.
In this experiment, the inhibitory effect of the compounds on the proliferation of Ba/F3-FL-TYK2-E957D cells were tested, apoptosis was detected, and the IC50 value was calculated. The inhibitory activity of the compounds against TYK2 kinase was evaluated based on the IC50 value.
as §6
Compounds were prepared into dilute solutions which was 1000 times of the final concentration. The compound was prepared into 20-times of the final concentration by diluting the compound with culture medium. 2 ul of 1000-times compound was added to per well to 98 ul of culture medium.
Cells (provided by Sundia Pharmaceutical Technology (Shanghai) Co., Ltd.) were resuspended and counted using an automated cell counter. The cell suspension was diluted to the desired density based on BaF3 seeding density of 2000 cells per well. Each well was plated with 95 ul of cells and incubated at 37° C. for stable equilibrium. 5 ul of 20-times compound was added to each well, with the wells to which the same volume of DMSO was added as a control.
The cell plate was equilibrated to room temperature. 40 ul CellTiter-Glo® Reagent was added to each well, shaken for 2 minutes and allowed to stand for 10 minutes. Detected with SpectraMax Paradigm.
• (1) IC50 was calculated using GraphPad Prism 5. • (2) % Inh=(Max signal−Compound signal)/(Max signal−Min signal)×100. • (3) Max signal was the positive control well with only the same volume of DMSO as the compound. • (4) Min signal was the negative control well with only the culture medium.

hERG potassium channel = biological target: T4, hERG potassium channel (Homo sapiens, UniProt Q12809); assay: hERG potassium channel inhibition assay (CHO-hERG cells, Qpatch automated patch clamp); conditions: highest tested concentration 40 μM
T4 construct: expressed in transfected cells; host or cells: CHO
T4 sequence (Q12809 whole entry): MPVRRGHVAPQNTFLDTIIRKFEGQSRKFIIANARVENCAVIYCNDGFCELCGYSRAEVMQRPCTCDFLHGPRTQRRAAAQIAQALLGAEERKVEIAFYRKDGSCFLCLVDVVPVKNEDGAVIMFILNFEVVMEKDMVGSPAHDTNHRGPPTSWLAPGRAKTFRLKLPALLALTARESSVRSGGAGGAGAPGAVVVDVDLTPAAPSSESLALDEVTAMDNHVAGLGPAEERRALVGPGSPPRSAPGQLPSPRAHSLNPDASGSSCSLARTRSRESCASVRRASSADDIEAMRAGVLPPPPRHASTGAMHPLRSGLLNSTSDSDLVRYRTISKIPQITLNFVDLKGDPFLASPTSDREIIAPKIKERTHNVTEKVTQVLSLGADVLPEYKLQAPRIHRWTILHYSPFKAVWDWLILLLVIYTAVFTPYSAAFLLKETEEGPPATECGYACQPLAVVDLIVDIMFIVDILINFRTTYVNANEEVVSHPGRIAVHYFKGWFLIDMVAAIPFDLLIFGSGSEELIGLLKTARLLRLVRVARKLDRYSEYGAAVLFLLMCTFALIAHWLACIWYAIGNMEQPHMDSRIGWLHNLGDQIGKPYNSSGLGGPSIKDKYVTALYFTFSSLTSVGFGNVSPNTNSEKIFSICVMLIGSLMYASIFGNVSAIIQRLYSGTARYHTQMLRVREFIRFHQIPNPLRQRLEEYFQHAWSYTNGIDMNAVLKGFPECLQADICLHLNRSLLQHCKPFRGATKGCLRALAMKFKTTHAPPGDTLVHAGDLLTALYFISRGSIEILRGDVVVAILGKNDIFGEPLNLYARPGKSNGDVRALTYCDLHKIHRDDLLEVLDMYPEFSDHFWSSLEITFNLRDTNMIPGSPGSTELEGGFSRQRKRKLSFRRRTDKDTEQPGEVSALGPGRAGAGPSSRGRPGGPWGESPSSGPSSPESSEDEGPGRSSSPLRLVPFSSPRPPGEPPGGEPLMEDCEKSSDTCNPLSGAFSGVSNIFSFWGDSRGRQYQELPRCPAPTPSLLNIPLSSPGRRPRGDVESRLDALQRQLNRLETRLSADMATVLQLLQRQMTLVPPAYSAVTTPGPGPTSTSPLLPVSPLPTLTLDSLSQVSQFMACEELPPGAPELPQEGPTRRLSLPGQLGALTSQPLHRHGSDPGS
Description: 4.1 Purpose of the Experiment The blocking effect of the compounds in the present invention on hERG potassium currents on stable cell lines transfected with hERG potassium channels was tested by applying a fully automated membrane clamp.
CHO-hERG cells were cultured in 175 cm^2 culture flasks, and when the cell density grew to 60-80%, the culture medium was removed and washed with 7 ml of PBS (Phosphate Buffered Saline), and then 3 ml of Detachin was added for digestion.
When digestion was completed, 7 ml of culture medium was added to neutralize the cells, then centrifuged, the supernatant was removed, and 5 ml of culture medium was added to resuspend the cells to ensure that the cell density is 2-5×10^6/ml.
The single-cell high-impedance sealing and whole-cell pattern formation processes were all automated with the Qpatch instrument. After obtaining the recording pattern, the cells were clamped at −80 mV, and a −50 mV preconditioning voltage was given for 50 ms prior to giving a +40 mV depolarizing stimulus for 5 s. The cell was then repolarized to −50 mV to be maintained for 5 s and then returned to −80 mV. This voltage stimulus was applied every 15 s. […]
The experimental data was analyzed by XLFit software.

T1 sequence (P29597 whole entry E957D): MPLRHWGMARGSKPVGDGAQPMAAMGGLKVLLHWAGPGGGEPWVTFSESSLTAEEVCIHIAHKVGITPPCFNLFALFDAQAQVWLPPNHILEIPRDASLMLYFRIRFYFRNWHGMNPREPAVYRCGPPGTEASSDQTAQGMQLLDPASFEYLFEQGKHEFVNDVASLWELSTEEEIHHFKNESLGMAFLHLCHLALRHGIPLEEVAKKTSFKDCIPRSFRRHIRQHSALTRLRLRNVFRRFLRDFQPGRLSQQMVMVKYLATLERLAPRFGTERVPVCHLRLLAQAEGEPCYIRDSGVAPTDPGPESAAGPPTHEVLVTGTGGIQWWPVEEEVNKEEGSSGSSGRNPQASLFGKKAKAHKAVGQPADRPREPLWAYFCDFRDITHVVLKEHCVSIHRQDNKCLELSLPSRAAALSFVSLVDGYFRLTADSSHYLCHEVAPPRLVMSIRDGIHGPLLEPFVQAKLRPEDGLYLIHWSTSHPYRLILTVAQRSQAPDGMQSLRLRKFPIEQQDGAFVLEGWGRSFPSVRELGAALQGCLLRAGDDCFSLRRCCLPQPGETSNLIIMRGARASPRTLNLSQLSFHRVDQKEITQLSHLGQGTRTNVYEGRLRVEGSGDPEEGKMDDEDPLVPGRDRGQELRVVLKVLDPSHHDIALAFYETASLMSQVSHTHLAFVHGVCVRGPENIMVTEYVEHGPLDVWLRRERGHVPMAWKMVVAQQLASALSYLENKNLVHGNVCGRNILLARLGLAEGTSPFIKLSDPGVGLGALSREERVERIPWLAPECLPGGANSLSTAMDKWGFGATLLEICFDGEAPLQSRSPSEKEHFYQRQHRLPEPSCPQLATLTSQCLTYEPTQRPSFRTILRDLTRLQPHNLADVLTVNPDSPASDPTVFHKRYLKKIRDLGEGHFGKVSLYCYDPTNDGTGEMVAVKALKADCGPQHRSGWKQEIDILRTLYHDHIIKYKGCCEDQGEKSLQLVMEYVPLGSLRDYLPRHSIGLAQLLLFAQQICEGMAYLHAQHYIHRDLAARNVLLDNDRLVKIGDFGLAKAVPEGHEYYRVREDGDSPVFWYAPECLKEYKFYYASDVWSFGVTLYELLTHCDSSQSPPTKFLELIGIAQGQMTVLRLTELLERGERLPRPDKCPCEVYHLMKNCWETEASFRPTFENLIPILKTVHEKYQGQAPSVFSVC

SMILES | IC50 (TYK2 [1]) [nM] | GI50 (JAK1) [nM] | GI50 (JAK2) [nM] | IC50 (TYK2 [2]) [nM] | IC50 (hERG potassium channel) [nM]
[2H]C([2H])([2H])NC(=O)c1nnc(NC(=O)C2CC2)cc1Nc1nc(N)c(Cl)cc1[S@@](C)(=O)=NC [Example 28] | 0.6 | > 1000 | > 1000 | 0.6 | > 30000
[2H]C([2H])([2H])NC(=O)c1nnc(NC(=O)C2CC2)cc1Nc1nc(N)c(Cl)cc1[S@](C)(=N)=O [Example 29, (R)-4-((6-amino-5-chloro-3-(S-methylsulfoximino)pyridin-2-yl)amino)-6-(cyclopropylcarboxamido)-N-(methyl-d3)pyridazine-3-carboxamide] | 1.1 | > 1000 | > 1000 | 1.1 | > 30000
